# Activity calls are given as the source filed them. The calls are words filed in the database; no cut-off is given here.
# Assays:
# MCF7 [1] = experiment: Cytotoxicity against human MCF7 cells up to 100 uM after 72 hrs by MTT assay; format: functional, cell-based
# HCT-116 [2] = experiment: Cytotoxicity against human HCT116 cells up to 100 uM after 72 hrs by MTT assay; format: functional, cell-based
# NCI-H460 [3] = experiment: Cytotoxicity against human H460 cells up to 100 uM after 72 hrs by MTT assay; format: functional, cell-based
# NCI-H460 [4] = experiment: Cytotoxicity against human H460 cells after 72 hrs by MTT assay; format: functional, cell-based; conditions: NCI-H460, 72 h
# MCF7 [5] = experiment: cells; conditions: Homo sapiens, MCF7, 72 h
# Description: Cytotoxicity against human MCF7 cells after 72 hrs by MTT assay
# HCT-116 [6] = experiment: cells; conditions: Homo sapiens, HCT-116, 72 h
# MDR1 (P-gp), human [7] = experiment: Apparent permeability from apical to basolateral side in MDCK2 cells expressing human MDR1 at 10 uM after 60 mins; format: ADME, cell-based, Canis lupus familiaris, MDCK-II; conditions: dog, MDCK-MDR1
# MDR1 (P-gp), human [8] = experiment: Apparent permeability from basolateral to apical side in MDCK2 cells expressing human MDR1 at 10 uM after 60 mins; format: ADME, cell-based, Canis lupus familiaris, MDCK-II; conditions: dog, MDCK-MDR1
# MDR1 (P-gp), human [9] = experiment: Efflux ratio of apparent permeability from apical to basolateral over basolateral to apical side of MDCK2 cells expressing human MDR1 gene; format: ADME, cell-based, Canis lupus familiaris, MDCK-II; conditions: dog, MDCK-MDR1
# [10] = (§1) Efflux ratio of apparent permeability from apical to basolateral side over basolateral to apical side in MDCK2 cells expressing human MDR1 in presence of P-gp inhibitor elacridar; format: ADME, cell-based, Canis lupus familiaris, MDCK-II; conditions: dog, mdck-ii
# [11] = Metabolic stability in human plasma assessed as compound remaining at 5 uM after 24 hrs by LC/MS/MS analysis; format: ADME, cell-free; conditions: read-out: Stability
# [12] = Metabolic stability in rat plasma assessed as compound remaining at 5 uM after 24 hrs by LC/MS/MS analysis; format: ADME, cell-free; conditions: read-out: Stability
# [13] = Metabolic stability in mouse plasma assessed as compound remaining at 5 uM after 24 hrs by LC/MS/MS analysis; format: ADME, cell-free; conditions: read-out: Stability
# [14] = Half life in human plasma at 5 uM; format: ADME
# [15] = Half life in rat plasma at 5 uM; format: ADME
# [16] = Half life in mouse plasma at 5 uM; format: ADME
# [17] = Metabolic stability in human liver microsomes assessed as compound remaining at 1 uM after 60 mins by LC/MS/MS analysis; format: ADME, Microsome; conditions: read-out: Stability
# [18] = Metabolic stability in rat liver microsomes assessed as compound remaining at 1 uM after 60 mins by LC/MS/MS analysis; format: ADME, Microsome; conditions: read-out: Stability
# [19] = Metabolic stability in mouse liver microsomes assessed as compound remaining at 1 uM after 60 mins by LC/MS/MS analysis; format: ADME, Microsome; conditions: read-out: Stability
# [20] = Half life in rat liver microsomes at 1 uM
# [21] = Half life in human liver microsomes at 1 uM
# [22] = Half life in mouse liver microsomes at 1 uM
# HCT-116 [23] = experiment: Cell cycle arrest in human HCT116 cells assessed as accumulation of cells at sub-G1 phase at 1 uM after 24 hrs using propidium iodide staining by FACS analysis (reference value: 1.8%); format: functional
# HCT-116 [24] = experiment: Cell cycle arrest in human HCT116 cells assessed as accumulation of cells at sub-G1 phase at 5 uM after 24 hrs using propidium iodide staining by FACS analysis (reference value: 1.8%); format: functional
# HCT-116 [25] = experiment: Cell cycle arrest in human HCT116 cells assessed as accumulation of cells at G1 phase at 1 uM after 24 hrs using propidium iodide staining by FACS analysis (reference value: 32.5%); format: functional
# HCT-116 [26] = experiment: Cell cycle arrest in human HCT116 cells assessed as accumulation of cells at G1 phase at 5 uM after 24 hrs using propidium iodide staining by FACS analysis (reference value: 32.5%); format: functional
# HCT-116 [27] = experiment: Cell cycle arrest in human HCT116 cells assessed as accumulation of cells at S phase at 1 uM after 24 hrs using propidium iodide staining by FACS analysis (reference value: 50%); format: functional
# HCT-116 [28] = experiment: Cell cycle arrest in human HCT116 cells assessed as accumulation of cells at S phase at 5 uM after 24 hrs using propidium iodide staining by FACS analysis (reference value: 50%); format: functional
# HCT-116 [29] = experiment: Cell cycle arrest in human HCT116 cells assessed as accumulation of cells at G2/M phase at 1 uM after 24 hrs using propidium iodide staining by FACS analysis (reference value: 17.4%); format: functional
# HCT-116 [30] = experiment: Cell cycle arrest in human HCT116 cells assessed as accumulation of cells at G2/M phase at 5 uM after 24 hrs using propidium iodide staining by FACS analysis (reference value: 17.4%); format: functional
# HCT-116 [31] = experiment: Cell cycle arrest in human HCT116 cells assessed as accumulation of cells at sub-G1 phase at 1 uM after 48 hrs using propidium iodide staining by FACS analysis (reference value: 1.5%); format: functional
# HCT-116 [32] = experiment: Cell cycle arrest in human HCT116 cells assessed as accumulation of cells at sub-G1 phase at 5 uM after 48 hrs using propidium iodide staining by FACS analysis (reference value: 1.5%); format: functional
# HCT-116 [33] = experiment: Cell cycle arrest in human HCT116 cells assessed as accumulation of cells at G1 phase at 1 uM after 48 hrs using propidium iodide staining by FACS analysis (reference value: 42.3%); format: functional
# HCT-116 [34] = experiment: Cell cycle arrest in human HCT116 cells assessed as accumulation of cells at G1 phase at 5 uM after 48 hrs using propidium iodide staining by FACS analysis (reference value: 42.3%); format: functional
# HCT-116 [35] = experiment: Cell cycle arrest in human HCT116 cells assessed as accumulation of cells at S phase at 1 uM after 48 hrs using propidium iodide staining by FACS analysis (reference value: 31%); format: functional
# HCT-116 [36] = experiment: Cell cycle arrest in human HCT116 cells assessed as accumulation of cells at S phase at 5 uM after 48 hrs using propidium iodide staining by FACS analysis (reference value: 31%); format: functional
# HCT-116 [37] = experiment: Cell cycle arrest in human HCT116 cells assessed as accumulation of cells at G2/M phase at 1 uM after 48 hrs using propidium iodide staining by FACS analysis (reference value: 26.6%); format: functional
# HCT-116 [38] = experiment: Cell cycle arrest in human HCT116 cells assessed as accumulation of cells at G2/M phase at 5 uM after 48 hrs using propidium iodide staining by FACS analysis (reference value: 26.6%); format: functional
# MDR1 (P-gp), human [39] = experiment: as §1; format: ADME, cell-based, Canis lupus familiaris, MDCK-II; conditions: dog, MDCK-MDR1, with elacridar (P-gp inhibitor; concentration not stated)
smiles,measurement,setting,value
COCOCCc1cnc(OC)nc1OC,growth inhibition (GI),MCF7 [1],Active
same,growth inhibition (GI),HCT-116 [2],Active
same,growth inhibition (GI),NCI-H460 [3],Active
same,IC50,NCI-H460 [4],> 100 µM
same,IC50,MCF7 [5],> 100 µM
same,IC50,HCT-116 [6],75 µM
O=c1[nH]cc(F)c(=O)[nH]1 [FLUOROURACIL],IC50,NCI-H460 [4],3 µM
same,IC50,MCF7 [5],14 µM
COCn1cc(CCO)c(OC)nc1=O,growth inhibition (GI),MCF7 [1],inactive
same,growth inhibition (GI),HCT-116 [2],inactive
same,growth inhibition (GI),NCI-H460 [3],inactive
Cc1nc(Cl)nc(Cl)c1CCCl,"Papp A→B at 1 h, 10 µM","MDR1 (P-gp), human [7]",35.8 ×10⁻⁶ cm/s
same,"Papp B→A at 1 h, 10 µM","MDR1 (P-gp), human [8]",20.9 ×10⁻⁶ cm/s
same,efflux ratio,"MDR1 (P-gp), human [9]",0.6
same,Ratio,[10],1.4
same,"remaining at 24 h, 5 µM",[11],20%
same,"remaining at 24 h, 5 µM",[12],3%
same,"remaining at 24 h, 5 µM",[13],22%
same,half-life at 5 µM,[14],600 min
same,half-life at 5 µM,[15],184 min
same,half-life at 5 µM,[16],478 min
same,"remaining at 1 h, 1 µM",[17],76%
same,"remaining at 1 h, 1 µM",[18],74%
same,"remaining at 1 h, 1 µM",[19],41%
same,half-life at 1 µM,[20],134 min
same,half-life at 1 µM,[21],145 min
same,half-life at 1 µM,[22],46 min
COc1ncc2c(n1)OCC2,growth inhibition (GI),MCF7 [1],inactive
same,growth inhibition (GI),HCT-116 [2],inactive
same,growth inhibition (GI),NCI-H460 [3],inactive
ClCCc1cnc(Cl)nc1Cl,IC50,NCI-H460 [4],3 µM
same,Activity,HCT-116 [23],2.5%
same,Activity,HCT-116 [24],8.1%
same,Activity,HCT-116 [25],33.5%
same,Activity,HCT-116 [26],7.8%
same,Activity,HCT-116 [27],48.8%
same,Activity,HCT-116 [28],14.6%
same,Activity,HCT-116 [29],17.2%
same,Activity,HCT-116 [30],77.6%
same,Activity,HCT-116 [31],1.7%
same,Activity,HCT-116 [32],8.5%
same,Activity,HCT-116 [33],41.7%
same,Activity,HCT-116 [34],24.6%
same,Activity,HCT-116 [35],31.5%
same,Activity,HCT-116 [36],14.8%
same,Activity,HCT-116 [37],26.7%
same,Activity,HCT-116 [38],60.7%
same,"Papp A→B at 1 h, 10 µM","MDR1 (P-gp), human [7]",20.8 ×10⁻⁶ cm/s
same,"Papp B→A at 1 h, 10 µM","MDR1 (P-gp), human [8]",25.8 ×10⁻⁶ cm/s
same,efflux ratio,"MDR1 (P-gp), human [9]",1.2
same,efflux ratio,"MDR1 (P-gp), human [39]",1.2
same,"remaining at 24 h, 5 µM",[11],0%
same,"remaining at 24 h, 5 µM",[12],0%
same,"remaining at 24 h, 5 µM",[13],0%
same,half-life at 5 µM,[14],153 min
same,half-life at 5 µM,[15],24 min
same,half-life at 5 µM,[16],91 min
same,"remaining at 1 h, 1 µM",[17],65%
same,"remaining at 1 h, 1 µM",[18],73%
same,"remaining at 1 h, 1 µM",[19],33%
same,IC50,MCF7 [5],10 µM
same,IC50,HCT-116 [6],0.8 µM
same,half-life at 1 µM,[20],134 min
same,half-life at 1 µM,[21],104 min
same,half-life at 1 µM,[22],34 min
COCn1cc(CCF)c(=O)[nH]c1=O,growth inhibition (GI),MCF7 [1],inactive
same,growth inhibition (GI),HCT-116 [2],inactive
same,growth inhibition (GI),NCI-H460 [3],inactive
COCOCCc1cn(COC)c(=O)nc1OC,growth inhibition (GI),MCF7 [1],inactive
same,growth inhibition (GI),HCT-116 [2],inactive
same,growth inhibition (GI),NCI-H460 [3],inactive
CC(=O)OCCc1c[nH]c(=O)[nH]c1=O,growth inhibition (GI),MCF7 [1],inactive
same,growth inhibition (GI),HCT-116 [2],inactive
same,growth inhibition (GI),NCI-H460 [3],inactive
COCn1cc(CCOC(C)=O)c(=O)n(COC)c1=O,growth inhibition (GI),MCF7 [1],inactive
same,growth inhibition (GI),HCT-116 [2],inactive
same,growth inhibition (GI),NCI-H460 [3],inactive
COc1nc(Cl)ncc1CCF,growth inhibition (GI),MCF7 [1],inactive
same,growth inhibition (GI),HCT-116 [2],inactive
same,growth inhibition (GI),NCI-H460 [3],inactive
COCn1cc(CCO)c(=O)n(COC)c1=O,growth inhibition (GI),MCF7 [1],inactive
same,growth inhibition (GI),HCT-116 [2],inactive
same,growth inhibition (GI),NCI-H460 [3],inactive
COCn1c(=O)[nH]cc(CCOC(C)=O)c1=O,growth inhibition (GI),MCF7 [1],inactive
same,growth inhibition (GI),HCT-116 [2],inactive
same,growth inhibition (GI),NCI-H460 [3],inactive
COCn1cc(CCO)c(=O)[nH]c1=O,growth inhibition (GI),MCF7 [1],inactive
same,growth inhibition (GI),HCT-116 [2],inactive
same,growth inhibition (GI),NCI-H460 [3],inactive
COCn1c(=O)[nH]cc(CCO)c1=O,growth inhibition (GI),MCF7 [1],inactive
same,growth inhibition (GI),HCT-116 [2],inactive
same,growth inhibition (GI),NCI-H460 [3],inactive
COc1ncc(CCO)c(OC)n1,growth inhibition (GI),MCF7 [1],inactive
same,growth inhibition (GI),HCT-116 [2],inactive
same,growth inhibition (GI),NCI-H460 [3],inactive
OCCc1cnc(Cl)nc1Cl,growth inhibition (GI),MCF7 [1],inactive
same,growth inhibition (GI),HCT-116 [2],inactive
same,growth inhibition (GI),NCI-H460 [3],inactive
CC(=O)OCCc1cnc(Cl)nc1Cl,growth inhibition (GI),MCF7 [1],Active
same,growth inhibition (GI),HCT-116 [2],Active
same,growth inhibition (GI),NCI-H460 [3],Active
same,IC50,NCI-H460 [4],31 µM
same,IC50,MCF7 [5],30 µM
same,IC50,HCT-116 [6],29 µM
COc1nc(Cl)ncc1CCO,growth inhibition (GI),MCF7 [1],inactive
same,growth inhibition (GI),HCT-116 [2],inactive
same,growth inhibition (GI),NCI-H460 [3],inactive
Clc1ncc2c(n1)OCC2,growth inhibition (GI),MCF7 [1],Active
same,growth inhibition (GI),HCT-116 [2],Active
same,growth inhibition (GI),NCI-H460 [3],Active
same,IC50,NCI-H460 [4],22 µM
same,IC50,MCF7 [5],45 µM
same,IC50,HCT-116 [6],13 µM
COCn1cc(CCOC(C)=O)c(=O)[nH]c1=O,growth inhibition (GI),MCF7 [1],inactive
same,growth inhibition (GI),HCT-116 [2],inactive
same,growth inhibition (GI),NCI-H460 [3],inactive

# Reference: ChEMBL document CHEMBL1949598, “Synthesis, cytostatic activity and ADME properties of C-5 substituted and N-acyclic pyrimidine derivatives” (Bioorg Med Chem Lett, 2012)
